Data from patent publication US7049303B2, “Inhibition of viruses” (Medical Research Council, priority 2001, dated 2006).

How the values were obtained:
[1] = tested on: human T-lymphocytes (CEM/O cells); experiment: Toxicity: inhibition of proliferation of human T-lymphocytes (CEM/O cells); format: cell-based; conditions: T-lymphocyte, read-out: IC50 (50% inhibitory concentration), proliferation of CEM/O cells
Method: Following synthesis, the various compounds were tested in vitro for toxicity, by measuring the IC50 (i.e. the concentration which caused 50% inhibition) in respect of the inhibitory effects of the compounds on the proliferation of human T-lymphocytes (CEM/O cells).

[2] = tested on: HIV-1(IIIB); experiment: Serial passage of HIV-1 infected CEM cell cultures with sub-toxic drug, cytopathic effect (giant cell formation); format: cell-based; conditions: for percentage of cytopathic effect (giant cell formation), passage number 1: passage 1; for percentage of cytopathic effect (giant cell formation), passage number 1 / percentage of cytopathic effect (giant cell formation), passage number 2 / percentage of cytopathic effect (giant cell formation), passage number 3 / percentage of cytopathic effect (giant cell formation), passage number 4 / percentage of cytopathic effect (giant cell formation), passage number 5 / percentage of cytopathic effect (giant cell formation), passage number 6 / percentage of cytopathic effect (giant cell formation), passage number 7: subcultivation every 5 days; for percentage of cytopathic effect (giant cell formation), passage number 2: passage 2; for percentage of cytopathic effect (giant cell formation), passage number 3: passage 3; for percentage of cytopathic effect (giant cell formation), passage number 4: passage 4; for percentage of cytopathic effect (giant cell formation), passage number 5: passage 5; for percentage of cytopathic effect (giant cell formation), passage number 6: passage 6; for percentage of cytopathic effect (giant cell formation), passage number 7: passage 7; for antiviral activity (inhibition of HIV replication) in words: HIV-1 infected CEM cells, sub-toxic concentrations, up to 7 passages
Method: HIV-1 infected CEM cells were subcultured every 4–5 days in the presence of sub-toxic concentrations (in the range of 10–20% of their respective IC50 value) of the compounds under test. At each sub-culture, cell-free supernatant (10–20 μl) was transferred to fresh 1 ml cell cultures. At regular intervals the cultures were inspected microscopically to assess the extent of any cytopathic effect (giant cell formation). As an alternative, it is also possible to perform an immunoassay to quantify viral p24 production.
The preliminary results for up to 7 passages are shown below in Table 3.

Compound | IC50 [1] | percentage of cytopathic effect (giant cell formation), passage number 1 ([2]; 4 μM) | percentage of cytopathic effect (giant cell formation), passage number 2 ([2]; 4 μM) | percentage of cytopathic effect (giant cell formation), passage number 3 ([2]; 4 μM) | percentage of cytopathic effect (giant cell formation), passage number 4 ([2]; 4 μM) | percentage of cytopathic effect (giant cell formation), passage number 5 ([2]; 4 μM) | percentage of cytopathic effect (giant cell formation), passage number 6 ([2]; 4 μM) | percentage of cytopathic effect (giant cell formation), passage number 7 ([2]; 4 μM) | percentage of cytopathic effect (giant cell formation), passage number 1 ([2]; 10 μM) | percentage of cytopathic effect (giant cell formation), passage number 2 ([2]; 10 μM) | percentage of cytopathic effect (giant cell formation), passage number 3 ([2]; 10 μM) | percentage of cytopathic effect (giant cell formation), passage number 4 ([2]; 10 μM) | percentage of cytopathic effect (giant cell formation), passage number 5 ([2]; 10 μM) | percentage of cytopathic effect (giant cell formation), passage number 6 ([2]; 10 μM) | percentage of cytopathic effect (giant cell formation), passage number 7 ([2]; 10 μM) | antiviral activity (inhibition of HIV replication) in words [2] | further results
CONc1ncnc2c1ncn2[C@@H]1O[C@H](CO)[C@@H](O)[C@H]1O [JA26, N^6-methoxyadenosine] | 44 ± 2 µM | 100% | 100% | 25% | 100% | 100% | 12% | 3% | 100% | 100% | 25% | 100% | 100% | 12% | 3% |  | 
CN(N)c1ncnc2c1ncn2[C@@H]1O[C@H](CO)[C@@H](O)[C@H]1O [JA27, N^6-amino-N^6-methyladenosine] | 17 ± 2 µM | 100% | 100% | 6% | 25% | 25% | 0% | 0% |  |  |  |  |  |  |  | moderately effective | 
OC[C@H]1O[C@@H](n2cnc3c(NO)ncnc32)[C@H](O)[C@@H]1O [JA28, N^6hydroxyadenosine] | 156 ± 15 µM |  |  |  |  |  |  |  |  |  |  |  |  |  |  |  | percentage of cytopathic effect (giant cell formation), passage number 1 ([2]; 20 μM): 100%; percentage of cytopathic effect (giant cell formation), passage number 2 ([2]; 20 μM): 100%; percentage of cytopathic effect (giant cell formation), passage number 3 ([2]; 20 μM): 19%; percentage of cytopathic effect (giant cell formation), passage number 4 ([2]; 20 μM): 100%; percentage of cytopathic effect (giant cell formation), passage number 5 ([2]; 20 μM): 100%; percentage of cytopathic effect (giant cell formation), passage number 6 ([2]; 20 μM): 100%; percentage of cytopathic effect (giant cell formation), passage number 7 ([2]; 20 μM): 100%; percentage of cytopathic effect (giant cell formation), passage number 1 ([2]; 40 μM): 100%; percentage of cytopathic effect (giant cell formation), passage number 2 ([2]; 40 μM): 100%; percentage of cytopathic effect (giant cell formation), passage number 3 ([2]; 40 μM): 50%; percentage of cytopathic effect (giant cell formation), passage number 4 ([2]; 40 μM): 100%; percentage of cytopathic effect (giant cell formation), passage number 5 ([2]; 40 μM): 100%; percentage of cytopathic effect (giant cell formation), passage number 6 ([2]; 40 μM): 75%; percentage of cytopathic effect (giant cell formation), passage number 7 ([2]; 40 μM): 6%
O=c1nc(NO)ccn1[C@@H]1O[C@H](CO)[C@@H](O)[C@H]1O [JA29, N^4-hydroxycytidine, reference compound] | 16 ± 1 µM |  |  |  |  |  |  |  |  |  |  |  |  |  |  | does not demonstrate any antiviral activity | percentage of cytopathic effect (giant cell formation), passage number 1 ([2]; 0.8 μM): 100%; percentage of cytopathic effect (giant cell formation), passage number 2 ([2]; 0.8 μM): 100%; percentage of cytopathic effect (giant cell formation), passage number 3 ([2]; 0.8 μM): 12%; percentage of cytopathic effect (giant cell formation), passage number 4 ([2]; 0.8 μM): 100%; percentage of cytopathic effect (giant cell formation), passage number 5 ([2]; 0.8 μM): 100%; percentage of cytopathic effect (giant cell formation), passage number 6 ([2]; 0.8 μM): 100%; percentage of cytopathic effect (giant cell formation), passage number 7 ([2]; 0.8 μM): 100%; percentage of cytopathic effect (giant cell formation), passage number 1 ([2]; 2 μM): 100%; percentage of cytopathic effect (giant cell formation), passage number 2 ([2]; 2 μM): 100%; percentage of cytopathic effect (giant cell formation), passage number 3 ([2]; 2 μM): 25%; percentage of cytopathic effect (giant cell formation), passage number 4 ([2]; 2 μM): 100%; percentage of cytopathic effect (giant cell formation), passage number 5 ([2]; 2 μM): 100%; percentage of cytopathic effect (giant cell formation), passage number 6 ([2]; 2 μM): 100%; percentage of cytopathic effect (giant cell formation), passage number 7 ([2]; 2 μM): 100%
Nc1nc(NO)c2ncn([C@@H]3O[C@H](CO)[C@@H](O)[C@H]3O)c2n1 [JA30, 2-amino-N^6-hydroxyadenosine] | 78 ± 3 µM |  |  |  |  |  |  |  | 100% | 100% | 25% | 100% | 100% | 100% | 50% |  | 
